Test results as given in ChEMBL document CHEMBL3414527, “Engineering potent and selective analogues of GpTx-1, a tarantula venom peptide antagonist of the Na(V)1.7 sodium channel” (J Med Chem, 2015).
Bridge positions count the residues as written; N and C are the ends. Peptide text beside a SMILES is read from it.

Target: Sodium channel protein type 5 subunit alpha (Homo sapiens, UniProt Q14524)
Test: Inhibition of human NaV1.5 at -140 mV holding potential by whole-cell patch clamp assay

Sequence of Sodium channel protein type 5 subunit alpha (Q14524 whole entry): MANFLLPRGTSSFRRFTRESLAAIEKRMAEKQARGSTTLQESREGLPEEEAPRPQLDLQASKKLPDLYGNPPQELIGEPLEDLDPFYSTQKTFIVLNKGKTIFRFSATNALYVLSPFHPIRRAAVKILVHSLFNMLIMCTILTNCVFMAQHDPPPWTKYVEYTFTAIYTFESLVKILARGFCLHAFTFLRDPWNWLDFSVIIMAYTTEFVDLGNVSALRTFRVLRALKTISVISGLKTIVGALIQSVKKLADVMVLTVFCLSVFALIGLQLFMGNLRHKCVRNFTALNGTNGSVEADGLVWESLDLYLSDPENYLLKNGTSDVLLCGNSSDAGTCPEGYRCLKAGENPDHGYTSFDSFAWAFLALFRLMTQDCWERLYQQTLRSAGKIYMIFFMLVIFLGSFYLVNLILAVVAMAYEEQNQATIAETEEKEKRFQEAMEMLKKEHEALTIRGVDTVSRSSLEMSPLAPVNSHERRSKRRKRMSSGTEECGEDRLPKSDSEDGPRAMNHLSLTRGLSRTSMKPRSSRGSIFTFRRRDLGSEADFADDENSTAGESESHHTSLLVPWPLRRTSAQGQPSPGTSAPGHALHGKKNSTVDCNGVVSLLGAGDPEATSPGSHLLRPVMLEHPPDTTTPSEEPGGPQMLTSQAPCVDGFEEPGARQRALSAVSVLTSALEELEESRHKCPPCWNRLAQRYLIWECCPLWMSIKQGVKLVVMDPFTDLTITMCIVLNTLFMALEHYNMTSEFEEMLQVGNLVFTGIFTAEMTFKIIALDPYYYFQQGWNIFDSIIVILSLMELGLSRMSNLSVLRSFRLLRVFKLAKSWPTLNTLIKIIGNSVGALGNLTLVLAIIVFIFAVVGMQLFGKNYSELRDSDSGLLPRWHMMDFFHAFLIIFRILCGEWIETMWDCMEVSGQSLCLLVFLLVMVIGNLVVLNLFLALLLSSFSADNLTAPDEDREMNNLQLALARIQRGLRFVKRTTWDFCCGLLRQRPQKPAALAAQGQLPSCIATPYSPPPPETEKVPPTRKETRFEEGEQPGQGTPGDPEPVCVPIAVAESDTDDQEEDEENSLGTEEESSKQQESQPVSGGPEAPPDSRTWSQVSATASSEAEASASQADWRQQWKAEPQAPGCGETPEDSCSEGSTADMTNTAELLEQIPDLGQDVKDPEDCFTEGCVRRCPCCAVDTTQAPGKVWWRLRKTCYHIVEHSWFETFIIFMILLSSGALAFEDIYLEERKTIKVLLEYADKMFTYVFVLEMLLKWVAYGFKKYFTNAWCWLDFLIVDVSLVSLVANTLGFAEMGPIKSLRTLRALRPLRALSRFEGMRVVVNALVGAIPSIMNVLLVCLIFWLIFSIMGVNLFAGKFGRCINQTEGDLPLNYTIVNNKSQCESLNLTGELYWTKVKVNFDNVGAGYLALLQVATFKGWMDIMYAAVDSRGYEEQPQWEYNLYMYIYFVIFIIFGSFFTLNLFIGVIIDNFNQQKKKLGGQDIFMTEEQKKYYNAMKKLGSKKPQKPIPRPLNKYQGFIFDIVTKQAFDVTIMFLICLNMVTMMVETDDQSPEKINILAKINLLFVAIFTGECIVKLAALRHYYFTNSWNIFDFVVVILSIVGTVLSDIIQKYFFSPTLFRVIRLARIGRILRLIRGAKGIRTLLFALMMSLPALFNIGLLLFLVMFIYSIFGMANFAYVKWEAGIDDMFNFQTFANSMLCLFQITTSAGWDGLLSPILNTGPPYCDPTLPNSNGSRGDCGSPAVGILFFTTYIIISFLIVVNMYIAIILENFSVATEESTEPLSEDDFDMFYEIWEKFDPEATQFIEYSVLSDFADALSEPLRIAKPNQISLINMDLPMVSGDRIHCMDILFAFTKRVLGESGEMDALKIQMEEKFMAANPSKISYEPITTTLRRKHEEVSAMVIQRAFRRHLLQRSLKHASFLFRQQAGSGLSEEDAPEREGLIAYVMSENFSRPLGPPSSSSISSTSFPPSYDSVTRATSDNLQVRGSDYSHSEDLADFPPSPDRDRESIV

| Structure (SMILES) | IC50 [µM] |
| --- | --- |
| CC[C@H](C)[C@@H]1NC(=O)[C@@H]2CSSC[C@@H]3NC(=O)[C@H](C(C)C)NC(=O)[C@H](CC(C)C)NC(=O)[C@H](CC(N)=O)NC(=O)[C@@H]4CCCN4C(=O)[C@H](CCCNC(=N)N)NC(=O)[C@H](CSSC[C@H](NC(=O)[C@@H](N)CC(=O)O)C(=O)N[C@@H](CC(C)C)C(=O)NCC(=O)N[C@@H](CCSC)C(=O)N[C@@H](CCSC)C(=O)N[C@@H](CCCNC(=N)N)C(=O)N[C@@H](CCCCN)C(=O)N2)NC(=O)[C@H](CSSC[C@@H](C(=O)N[C@@H](CCCCN)C(=O)N[C@@H](Cc2ccc(O)cc2)C(=O)N[C@H](C(=O)N[C@@H](Cc2ccccc2)C(N)=O)C(C)C)NC(=O)[C@H](Cc2c[nH]c4ccccc24)NC(=O)[C@H](CCCCN)NC(=O)[C@H](Cc2cnc[nH]2)NC(=O)[C@H]([C@@H](C)O)NC(=O)[C@H](CCCNC(=N)N)NC(=O)[C@H](CO)NC3=O)NC(=O)[C@H](CCCCN)NC(=O)[C@H](CC(=O)O)NC(=O)[C@H](CC(N)=O)NC(=O)[C@H](CC(=O)O)NC(=O)[C@@H]2CCCN2C1=O (H-DCLGMMRKCIPDNDKCCRPNLVCSRTHKWCKYVF-NH2; disulfide 2-17, 9-23, 16-30) | > 10 |
| CC[C@H](C)[C@@H]1NC(=O)[C@@H]2CSSC[C@@H]3NC(=O)[C@H](C(C)C)NC(=O)[C@H](CC(C)C)NC(=O)[C@H](CC(N)=O)NC(=O)[C@@H]4CCCN4C(=O)[C@H](CCCNC(=N)N)NC(=O)[C@H](CSSC[C@H](NC(=O)[C@H](CC(=O)O)NC(=O)[C@H](C)N)C(=O)N[C@@H](CC(C)C)C(=O)NCC(=O)N[C@@H](Cc4ccccc4)C(=O)N[C@@H](CCSC)C(=O)N[C@@H](CCCNC(=N)N)C(=O)N[C@@H](CCCCN)C(=O)N2)NC(=O)[C@H](CSSC[C@@H](C(=O)N[C@@H](CCCCN)C(=O)N[C@@H](Cc2ccc(O)cc2)C(=O)N[C@H](C(=O)N[C@@H](Cc2ccccc2)C(N)=O)C(C)C)NC(=O)[C@H](Cc2c[nH]c4ccccc24)NC(=O)[C@H](CCCCN)NC(=O)[C@H](Cc2cnc[nH]2)NC(=O)[C@H]([C@@H](C)O)NC(=O)[C@H](CCCNC(=N)N)NC(=O)[C@H](CO)NC3=O)NC(=O)[C@H](CCCCN)NC(=O)[C@H](CC(=O)O)NC(=O)[C@H](CC(N)=O)NC(=O)[C@H](CC(=O)O)NC(=O)[C@@H]2CCCN2C1=O | > 5 |
| CSCC[C@@H]1NC(=O)[C@H](Cc2ccccc2)NC(=O)CNC(=O)[C@H](CC(C)C)NC(=O)[C@@H](NC(=O)[C@@H](N)CC(=O)O)CSSC[C@@H]2NC(=O)[C@@H]3CSSC[C@@H](C(=O)N[C@@H](CCCCN)C(=O)N[C@@H](Cc4ccc(O)cc4)C(=O)N[C@H](C(=O)N[C@@H](Cc4ccccc4)C(N)=O)C(C)C)NC(=O)[C@H](Cc4c[nH]c5ccccc45)NC(=O)[C@H](CCCCN)NC(=O)[C@H](Cc4cnc[nH]4)NC(=O)[C@H]([C@@H](C)O)NC(=O)[C@H](CCCNC(=N)N)NC(=O)[C@H](CO)NC(=O)[C@H](CSSC[C@H](NC(=O)[C@H](CCCCN)NC(=O)[C@H](CCCNC(=N)N)NC1=O)C(=O)N[C@@H](C)C(=O)N1CCC[C@H]1C(=O)N[C@@H](CC(=O)O)C(=O)N[C@@H](CC(N)=O)C(=O)N[C@@H](CC(=O)O)C(=O)N[C@@H](CCCCN)C(=O)N3)NC(=O)[C@H](C(C)C)NC(=O)[C@H](CC(C)C)NC(=O)[C@H](CC(N)=O)NC(=O)[C@@H]1CCCN1C(=O)[C@H](CCCNC(=N)N)NC2=O (H-DCLGFMRKCAPDNDKCCRPNLVCSRTHKWCKYVF-NH2; disulfide 2-17, 9-23, 16-30) | > 5 |
| CCCC[C@@H]1NC(=O)[C@H](C)NC(=O)CNC(=O)[C@H](CC(C)C)NC(=O)[C@@H](NC(=O)[C@@H](N)CC(=O)O)CSSC[C@@H]2NC(=O)[C@@H]3CSSC[C@@H](C(=O)N[C@@H](CCCCN)C(=O)N[C@@H](Cc4ccc(O)cc4)C(=O)N[C@H](C(=O)N[C@@H](Cc4ccccc4)C(N)=O)C(C)C)NC(=O)[C@H](Cc4c[nH]c5ccccc45)NC(=O)[C@H](CCCCN)NC(=O)[C@H](Cc4cnc[nH]4)NC(=O)[C@H]([C@@H](C)O)NC(=O)[C@H](CCCNC(=N)N)NC(=O)[C@H](CO)NC(=O)[C@H](CSSC[C@H](NC(=O)[C@H](CCCCN)NC(=O)[C@H](CCCNC(=N)N)NC1=O)C(=O)N[C@@H]([C@@H](C)CC)C(=O)N1CCC[C@H]1C(=O)N[C@@H](CC(=O)O)C(=O)N[C@@H](CC(N)=O)C(=O)N[C@@H](CC(=O)O)C(=O)N[C@@H](CCCCN)C(=O)N3)NC(=O)[C@H](C(C)C)NC(=O)[C@H](CC(C)C)NC(=O)[C@H](CC(N)=O)NC(=O)[C@@H]1CCCN1C(=O)[C@H](CCCNC(=N)N)NC2=O | > 10 |
| CC[C@H](C)[C@@H]1NC(=O)[C@@H]2CSSC[C@@H]3NC(=O)[C@H](C(C)C)NC(=O)[C@H](CC(C)C)NC(=O)[C@H](CC(N)=O)NC(=O)[C@@H]4CCCN4C(=O)[C@H](CCCNC(=N)N)NC(=O)[C@H](CSSC[C@H](NC(=O)[C@@H](N)CC(=O)O)C(=O)N[C@@H](CC(C)C)C(=O)NCC(=O)NCC(=O)N[C@@H](CCSC)C(=O)N[C@@H](CCCNC(=N)N)C(=O)N[C@@H](CCCCN)C(=O)N2)NC(=O)[C@H](CSSC[C@@H](C(=O)N[C@@H](CCCCN)C(=O)N[C@@H](Cc2ccc(O)cc2)C(=O)N[C@H](C(=O)N[C@@H](Cc2ccccc2)C(N)=O)C(C)C)NC(=O)[C@H](Cc2c[nH]c4ccccc24)NC(=O)[C@H](CCCCN)NC(=O)[C@H](Cc2cnc[nH]2)NC(=O)[C@H]([C@@H](C)O)NC(=O)[C@H](CCCNC(=N)N)NC(=O)[C@H](CO)NC3=O)NC(=O)[C@H](CCCCN)NC(=O)[C@H](CC(=O)O)NC(=O)[C@H](CC(N)=O)NC(=O)[C@H](CC(=O)O)NC(=O)[C@@H]2CCCN2C1=O (H-DCLGGMRKCIPDNDKCCRPNLVCSRTHKWCKYVF-NH2; disulfide 2-17, 9-23, 16-30) | > 10 |
| CCCC[C@@H]1NC(=O)[C@H](Cc2ccccc2)NC(=O)CNC(=O)[C@H](CC(C)C)NC(=O)[C@@H](NC(=O)[C@@H](N)CC(=O)O)CSSC[C@@H]2NC(=O)[C@@H]3CSSC[C@@H](C(=O)N[C@@H](CCCCN)C(=O)N[C@@H](Cc4ccc(O)cc4)C(=O)N[C@H](C(=O)N[C@@H](Cc4ccccc4)C(N)=O)C(C)C)NC(=O)[C@H](Cc4c[nH]c5ccccc45)NC(=O)[C@H](CCCCN)NC(=O)[C@H](Cc4cnc[nH]4)NC(=O)[C@H]([C@@H](C)O)NC(=O)[C@H](CCCNC(=N)N)NC(=O)[C@H](CO)NC(=O)[C@H](CSSC[C@H](NC(=O)[C@H](CCCCN)NC(=O)[C@H](CCCNC(=N)N)NC1=O)C(=O)N[C@@H]([C@@H](C)CC)C(=O)N1CCC[C@H]1C(=O)N[C@@H](CC(=O)O)C(=O)N[C@@H](CC(N)=O)C(=O)N[C@@H](CC(=O)O)C(=O)N[C@@H](CCCCN)C(=O)N3)NC(=O)[C@H](C(C)C)NC(=O)[C@H](CC(C)C)NC(=O)[C@H](CC(N)=O)NC(=O)[C@@H]1CCCN1C(=O)[C@H](CCCNC(=N)N)NC2=O | 1.1 |
| CC[C@H](C)[C@@H]1NC(=O)[C@@H]2CSSC[C@@H]3NC(=O)[C@H](C(C)C)NC(=O)[C@H](CC(C)C)NC(=O)[C@H](CC(N)=O)NC(=O)[C@@H]4CCCN4C(=O)[C@H](CCCNC(=N)N)NC(=O)[C@H](CSSC[C@H](NC(=O)[C@@H](N)CC(=O)O)C(=O)N[C@@H](CC(C)C)C(=O)NCC(=O)N[C@@H](Cc4ccccc4)C(=O)N[C@@H](CCSC)C(=O)N[C@@H](CCCNC(=N)N)C(=O)N[C@@H](CCCCN)C(=O)N2)NC(=O)[C@H](CSSC[C@@H](C(=O)N[C@@H](CCCCN)C(=O)N[C@@H](Cc2ccc(O)cc2)C(=O)N[C@H](C(=O)N[C@@H](Cc2ccccc2)C(N)=O)C(C)C)NC(=O)[C@H](Cc2c[nH]c4ccccc24)NC(=O)[C@H](CCCCN)NC(=O)[C@H](Cc2cnc[nH]2)NC(=O)[C@H]([C@@H](C)O)NC(=O)[C@H](CCCNC(=N)N)NC(=O)[C@H](C)NC3=O)NC(=O)[C@H](CCCCN)NC(=O)[C@H](CC(=O)O)NC(=O)[C@H](CC(N)=O)NC(=O)[C@H](CC(=O)O)NC(=O)[C@@H]2CCCN2C1=O (H-DCLGFMRKCIPDNDKCCRPNLVCARTHKWCKYVF-NH2; disulfide 2-17, 9-23, 16-30) | > 4.7 |
| CC[C@H](C)[C@@H]1NC(=O)[C@@H]2CSSC[C@@H]3NC(=O)[C@H](C(C)C)NC(=O)[C@H](CC(C)C)NC(=O)[C@H](CC(N)=O)NC(=O)[C@@H]4CCCN4C(=O)[C@H](CCCNC(=N)N)NC(=O)[C@H](CSSC[C@H](NC(=O)[C@@H](N)CC(=O)O)C(=O)N[C@@H](CC(C)C)C(=O)NCC(=O)N[C@@H](C4CCCC4)C(=O)N[C@@H](CCSC)C(=O)N[C@@H](CCCNC(=N)N)C(=O)N[C@@H](CCCCN)C(=O)N2)NC(=O)[C@H](CSSC[C@@H](C(=O)N[C@@H](CCCCN)C(=O)N[C@@H](Cc2ccc(O)cc2)C(=O)N[C@H](C(=O)N[C@@H](Cc2ccccc2)C(N)=O)C(C)C)NC(=O)[C@H](Cc2c[nH]c4ccccc24)NC(=O)[C@H](CCCCN)NC(=O)[C@H](Cc2cnc[nH]2)NC(=O)[C@H]([C@@H](C)O)NC(=O)[C@H](CCCNC(=N)N)NC(=O)[C@H](CO)NC3=O)NC(=O)[C@H](CCCCN)NC(=O)[C@H](CC(=O)O)NC(=O)[C@H](CC(N)=O)NC(=O)[C@H](CC(=O)O)NC(=O)[C@@H]2CCCN2C1=O | > 10 |
| CC[C@H](C)[C@@H]1NC(=O)[C@@H]2CSSC[C@@H]3NC(=O)[C@H](C(C)C)NC(=O)[C@H](CC(C)C)NC(=O)[C@H](CC(N)=O)NC(=O)[C@@H]4CCCN4C(=O)[C@H](CCCNC(=N)N)NC(=O)[C@H](CSSC[C@H](NC(=O)[C@@H](N)CC(=O)O)C(=O)N[C@@H](CC(C)C)C(=O)NCC(=O)N[C@@H](Cc4ccccc4)C(=O)N[C@@H](CCSC)C(=O)N[C@@H](CCCNC(=N)N)C(=O)N[C@@H](CCCCN)C(=O)N2)NC(=O)[C@H](CSSC[C@@H](C(=O)N[C@@H](CCCCN)C(=O)N[C@@H](Cc2ccc(O)cc2)C(=O)N[C@H](C(=O)N[C@@H](Cc2ccccc2)C(N)=O)C(C)C)NC(=O)[C@H](Cc2c[nH]c4ccccc24)NC(=O)[C@H](CCCCN)NC(=O)[C@H](Cc2cnc[nH]2)NC(=O)[C@H](CCCNC(=N)N)NC(=O)[C@H](CCCNC(=N)N)NC(=O)[C@H](CO)NC3=O)NC(=O)[C@H](CCCCN)NC(=O)[C@H](CC(=O)O)NC(=O)[C@H](CC(N)=O)NC(=O)[C@H](CC(=O)O)NC(=O)[C@@H]2CCCN2C1=O (H-DCLGFMRKCIPDNDKCCRPNLVCSRRHKWCKYVF-NH2; disulfide 2-17, 9-23, 16-30) | 0.5 |
